The target in assay [1] is T1, purified recombinant Stat3 (rStat3) (Homo sapiens, UniProt P40763).
T1 construct: made in house; host or cells: E. coli BL21(DE3)
The assay can be described thus: Isothermal titration calorimetry (ITC). The assay is classed as binding. Here is the method: The ITC experiment was carried out as previously described. Details are provided in Supplementary Information, “Methods”. […]
1.2.10. Isothermal titration calorimetry (ITC)
The ITC experiment was carried out as previously described with some modification using Malvern Panalytical MicroCal PEAQ-ITC (United Kingdom). Studies were done at 25 °C. Briefly, H182, previously suspended in 100 % DMSO were diluted in 20 mM HEPES, 150 mM KCl buffer so the final DMSO was 5 %. To avoid buffer mismatch, Stat3 in HEPES buffer was diluted in HEPES buffer with 5% DMSO final concentration. Three hundred microliter (300 μL) aliquots of 3.0 μM Stat3 w ere placed in the cell and titrated with 250 μM H182. Titrations took place by injecting 2 μL H182 in a 2.5 min injection for the titration peak to return to the baseline. The K D was calculated using the MicroCal PEAQ-ITC analysis […]
software and Prism GraphPad software (San Diego, CA), using the one-site model. Control experiments were carried out by titration H182 into buffer, buffer into Stat3, and buffer into buffer. […]
(§1) DMSO (control) was added, and then immediately, cells were imaged with a Canon Powershot A640 digital camera under a phase contrast with the Zeiss Axiovert 200 inverted microscope at 10X magnification and noted as the zero time-point. Following culture for 22 h to allow cells to migrate into the denuded area, the culture was then imaged again at the same field that was marked on the plate.
(§2) 1.2.12. Annexin V binding/apoptosis and flow cytometric analysis
For apoptosis analysis, annexin V/propidium iodide (PI) staining was performed. Briefly, cells in culture and untreated (DMSO, control) or treated with H182 were harvested and stained with FITC -annexin V (Apoptosis Detection Kit), according to manufacturer’s instructions (BD Biosciences, San Jose, CA). […]
1.2.13. Assessment of Physicochemical Properties
Solubility, human (HLM) and mouse liver microsomal (MLM), and plasma stability studies were performed by Eurofins Cerep Panlabs and Eurofin Discovery Services (www.eurofins.com/PharmaDiscovery), while
(ITC needs no label: the signal is the heat of the interaction.)

Assay [2] concerns MDA-MB-231 cells. The experiment in a line: Wound healing (scratch) assay for migration. The assay is classed as cell-based, human. As to conditions: one-time treatment, 22 h. How it is done:
Studies were performed as previously reported. Details are presented in Supplementary Information, “Methods”. […]
software and Prism GraphPad software (San Diego, CA), using the one-site model. Control experiments were carried out by titration H182 into buffer, buffer into Stat3, and buffer into buffer. The three controls were used as a composite for the ITC experiment to subtract the heat of dilution and background noise from […]
1.2.11. Wound healing assay for migration
as §1, with “Studies were performed as previously reported [1 -3]. Briefly, cells were cultured in 6-well plates, and the monolayer of cells was scratched with a p10 pipet tip. Subsequently, fresh medium containing inhibitors or DMSO” for “DMSO”
as §2
For apoptosis analysis, annexin V/propidium iodide (PI) staining was performed. […] The annexin V- and/or PI-positive cells were analyzed by FACScan flow cytometer (BD Biosciences) and data was analyzed using FlowJo software. […]

Assay [3] deals with MDA-MB-231 cells. The experiment in a line: Soft-agar colony formation. Type of assay: cell-based, human. The note with it: 0.3–2 μM H182. Here is the method:
(§3) These studies were performed as previously reported. Details are presented in Supplementary Information, “Methods”.
These studies were performed as previously reported . For the clonogenic survival assay, briefly, cells were seeded as single-cell (500 cells per well) in 6 -well plates, then untreated (DMSO control) or treated once the following day with H182 and allowed to grow until large colonies were visible, which were stained with crystal violet for 4 h and imaged with a FluorChem imaging system (Protein Simple, Santa Clara, CA).
For the soft-agar assay, briefly, each well contained a bottom layer of 1 ml of 1% agarose in complete DMEM and a top layer of 1 ml of 0.5% agarose in complete DMEM containing 500 cells. After the upper agar layer containing cells solidified, 1 ml culture medium containing H182 (0-2 µM) or DMSO (control) was overlaid, and the cultures were maintained at 37 °C in the incubator, with the medium replacement every 3-4 days with fresh medium that contains the inhibitor or not. Cells were allowed to culture for 3-4 weeks until large colonies were visible under microscope. The colonies were stained with crystal violet and […]
1.2.8. Confocal microscopy studies
4 cells in 1 ml) in logarithmic
These studies were performed as previously reported. […]

The next assay deals with Stat3 (Homo sapiens, UniProt P40763). The experiment in a line: Immunofluorescence confocal microscopy of Stat3 localization. Type of assay: cell-based. Also noted: endogenous in cells. The note with it: MDA-MB-231 and MDA-MB-468, 1 or 2 μM H182, 12 h. How it is done: as §3
Chain of Stat3 (P40763 whole entry): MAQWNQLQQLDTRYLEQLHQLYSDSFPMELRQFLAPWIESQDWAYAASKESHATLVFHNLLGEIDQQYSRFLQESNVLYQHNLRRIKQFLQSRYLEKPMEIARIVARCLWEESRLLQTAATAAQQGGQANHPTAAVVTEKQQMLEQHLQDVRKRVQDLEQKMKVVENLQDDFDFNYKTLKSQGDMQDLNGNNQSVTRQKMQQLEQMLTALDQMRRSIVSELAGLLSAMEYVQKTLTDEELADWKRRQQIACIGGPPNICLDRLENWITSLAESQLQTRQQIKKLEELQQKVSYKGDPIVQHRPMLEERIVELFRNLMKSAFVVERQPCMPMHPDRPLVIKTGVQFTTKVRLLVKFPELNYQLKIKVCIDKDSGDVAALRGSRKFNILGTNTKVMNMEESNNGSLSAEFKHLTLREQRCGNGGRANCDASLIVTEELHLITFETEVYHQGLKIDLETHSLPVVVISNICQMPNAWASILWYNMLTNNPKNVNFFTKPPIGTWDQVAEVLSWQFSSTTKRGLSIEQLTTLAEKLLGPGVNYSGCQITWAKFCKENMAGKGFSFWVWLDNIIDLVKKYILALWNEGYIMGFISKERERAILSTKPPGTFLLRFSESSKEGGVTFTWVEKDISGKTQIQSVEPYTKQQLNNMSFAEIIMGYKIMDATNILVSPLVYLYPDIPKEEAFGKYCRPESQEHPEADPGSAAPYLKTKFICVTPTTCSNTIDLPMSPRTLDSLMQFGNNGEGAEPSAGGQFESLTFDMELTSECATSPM
During confluence of cultured cells, the cell-to-cell adhesion and cadherin engagement trigger increased Tyr705Stat3 phosphorylation in a variety of cell lines. To investigate the impact of cell-to-cell adhesion and cadherin engagement, parallel studies were conducted in which cells in culture were untreated or treated with 1 or 2 μM H182 for 0.5–48 h, and whole-cell lysates prepared and immunoprobed for pTyr705Stat3. […] After 48-h incubation, the cell confluency of the DMSO-treated samples reached to around 60% for MDA-MB-468 cells and 80% for MDA-MB-231 cells. […] In the untreated cells, Stat3 (red punctate) staining was predominantly localized in the nucleus of the tumor cells, with weak presence in the cytoplasm (Fig. 4F, 0, Stat3, red merged with blue DAPI nuclear staining). […] Total Stat3 protein levels in all of these studies were unchanged, and GAPDH, tubulin or β-actin levels show equal protein loading. The percent changes induced by H182 treatment on Stat3 DNA-binding activity and phosphorylation in the treated cells are shown.
These studies were performed as previously reported . […]

The structures appear in SMILES notation.

For orientation: Kd means the equilibrium constant for the complex coming apart.

T1 sequence (P40763 127-711): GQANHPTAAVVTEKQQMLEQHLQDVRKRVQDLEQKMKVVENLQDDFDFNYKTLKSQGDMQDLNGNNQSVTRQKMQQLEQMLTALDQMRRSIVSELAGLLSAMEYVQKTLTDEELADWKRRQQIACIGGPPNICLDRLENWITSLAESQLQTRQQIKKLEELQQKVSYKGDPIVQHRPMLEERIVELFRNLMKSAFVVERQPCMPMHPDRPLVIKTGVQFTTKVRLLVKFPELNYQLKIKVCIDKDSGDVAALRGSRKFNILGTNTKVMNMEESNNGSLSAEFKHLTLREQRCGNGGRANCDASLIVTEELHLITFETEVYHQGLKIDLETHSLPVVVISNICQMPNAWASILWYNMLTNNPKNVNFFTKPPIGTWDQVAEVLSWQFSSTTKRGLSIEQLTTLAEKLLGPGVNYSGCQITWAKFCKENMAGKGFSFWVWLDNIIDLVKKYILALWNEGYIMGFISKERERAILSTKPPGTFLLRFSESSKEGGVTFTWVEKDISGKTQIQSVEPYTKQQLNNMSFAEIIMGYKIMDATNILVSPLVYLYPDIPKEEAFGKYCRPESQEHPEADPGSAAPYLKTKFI

`O=C([C@H]1CCN1S(=O)(=O)c1c(F)c(F)c(F)c(F)c1F)N(Cc1ccc(C2CCCCC2)cn1)c1ccc2c(=O)[nH]ncc2c1` [Compound H182]: in assay [1], the ΔG is -7.79 kcal/mol, the ΔH is -4.16 kcal/mol and the “−TΔS” value is -3.63 kcal/mol. The Kd in assay [1] (one-site model, 25 °C) is 1970 nM. In the assay on MDA-MB-231 cells [2], the “Effect on cell migration into the denuded area” value is reported as “inhibited the cell migration”. Also, the “Effect on anchorage-independent growth in soft-agar” value in the assay with MDA-MB-231 cells [3] was “potently and dose-dependently inhibited”. Further, the “Effect on intracellular localization of Stat3” value at Stat3 was “decreased nuclear Stat3 staining and Stat3 aggregation at the perinuclear region”.

The values above are taken from paper PMC9867837 (Cancer letters, 2022).
